Results: patent US12589114B2 (The Board of Trustees of the Leland Stanford Junior …, priority 2019, dated 2026)

How the values were obtained:
GABRR1 [1] = biological target: T1, GABRR1 (Mus musculus, UniProt P56475); experiment: Patch-clamp recording of GABA-evoked currents in purified GR+ and GR− MkPs and HSCs; type: cell-based; settings: 1 mM GABA, whole-cell patch clamp
T1 construct: Mice were randomly grouped and injected once everyday using GABA agonists and antagonists; from tissue; host or cells: whole animal (C57BL/6J mice); read-outs in peripheral blood and bone marrow
T1 sequence (P56475 22-480): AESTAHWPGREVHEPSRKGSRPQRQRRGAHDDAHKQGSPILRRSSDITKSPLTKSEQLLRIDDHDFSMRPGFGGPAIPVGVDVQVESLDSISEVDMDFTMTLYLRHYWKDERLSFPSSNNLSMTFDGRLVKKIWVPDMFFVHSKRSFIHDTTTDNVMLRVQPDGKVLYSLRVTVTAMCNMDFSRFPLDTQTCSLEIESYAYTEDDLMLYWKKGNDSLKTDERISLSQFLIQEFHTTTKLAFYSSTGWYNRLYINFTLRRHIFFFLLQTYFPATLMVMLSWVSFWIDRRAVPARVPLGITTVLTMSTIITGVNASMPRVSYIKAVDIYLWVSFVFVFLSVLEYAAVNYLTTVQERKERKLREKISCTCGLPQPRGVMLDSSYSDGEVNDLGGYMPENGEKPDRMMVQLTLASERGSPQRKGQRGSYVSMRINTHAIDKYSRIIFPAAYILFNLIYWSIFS
Excerpt: Gabrr1^+ (GR^+) and Gabrr1^− (GR^−) HSCs or MkPs cells were then purified and tested by electrophysiological recording using patch-clamp techniques.
Electrophysiology. Whole-cell voltage-clamped recordings were made from the dissociated blood cells perfused in oxygenated ACSF containing the following (in mM): 119 NaCl, 26 NaHCO3, 10 glucose, 1.25 NaH2PO4, 2.5 KCl, 2 CaCl2, 1 MgCl2, 2 Na-pyruvate, and 0.5 ascorbic acid, pH 7.4. […] Cells were voltage clamped at various levels between −80 mV to 60 mV. The pipette internal solution contains (in mM): 120 Cs—Cl, 20 tetraethylammonium-Cl, 20 HEPES, 2 EGTA, 4 MgATP, 0.4 NaGTP, 10 phosphocreatine.
The drug was applied through a second pipette (resistance of 3-4 MΩ) connected to Picospritzer (Cleveland, OH, USA) at a pulse duration of 100 ms and pressure of 5-10 kPa.

GABRR1 [2] = biological target: T1, GABRR1; experiment: Flow cytometry of bone marrow HSPC populations of mice treated with agonists or antagonists of Gabrr1; type: in vivo; settings: C57BL/6J mice, 7 days of treatment
Experimental: (§1) Mouse injection. […] Muscimol 2 mg/kg, TACA 2 mg/kg and SR95531 4 mg/kg was injected by i.p. The mice were treated for 7 days and then complete blood cell counting was done with the HemaTrue Hematology Analyzer (HESKE).
Flow Cytometry. Mouse bone marrow cells were harvested, washed, and resuspended in PBS containing 2% FBS, and subjected to the staining process with antibodies at their optimal concentrations. […] Then, to enrich HSCs and progenitor populations, cells were stained with APC-conjugated anti-c-Kit (2B8) and then with anti-APC magnetic beads (Miltenyi Biotec) after washing. The c-Kit+cells were eluted from LS columns (Miltenyi Biotec). Those cells then stained with the antibody cocktail directed against cell surface antigens as follows: for early progenitor analysis, Sca-1, Flk2, CD150, CD34, IL-7R, CD16/32, c-kit and the lineage markers Ter-119, B220, CD3, CD4, CD8a, Gr-1, CD11b, CD41. For late stage populations, cells were stained with antibodies specific for Sca-1, Endoglin [CD105], CD150, CD16/32, c-kit [CD117] and the lineage markers for 30 min at 4° C., DNA dye was used for the live/dead cells staining.
Surface marker cocktail of mouse hematopoietic stem and progenitor populations: • HSC: Lin-c-kit+Sca1+CD150+Endoglin+ • MPP: Lin-c-kit+Sca1+Endoglin−CD150− • GMP: Lin-c-kit+Sca1− CD41−FcgRII+ • EP: Lin-c-kit+Sca1− CD41−FcgRII−Endogilin+CD150− • MkP: Lin-c-kit+Sca1− CD150+CD41+ • PreGM: Lin-c-kit+Sca1− CD41−FcgRII−Endogilin−CD150− • Pre CFU-E: Lin-c-kit+Sca1− CD41−FcgRII−Endogilin+CD150+ • MEP: Lin-c-kit+Sca1− CD41−FcgRII−Endogilin−CD150+.

human CD34+ cells [3] = experiment: Real-time PCR of megakaryocyte-related genes in 7-day differentiated cells from CD34+ bone marrow cells; type: cell-based
Experimental: (§2) We treated human CD34+ cells with different agonists and antagonists of GABRR1.
RNA isolation and Real-Time PCR. Total RNA was extracted by RNeasy Plus Micro kit and RNeasy MinElute Cleanup Kit following manufacturer's instructions (Qiagen). Synthesis of cDNA was performed with the SuperScript™ III Reverse Transcriptase (ThermoFisher Scientific). Real time PCR was done using the Fast SYBR® Green Master Mix (ThermoFisher Scientific) on the 7900 Fast Real-Time PCR System (Applied Biosystems). PCR products were analyzed on a 2% agarose gel.

GABRR1 [4] = biological target: T1, GABRR1; experiment: Complete blood cell counts in peripheral blood of mice treated with agonists or antagonists of Gabrr1; type: in vivo; settings: C57BL/6J mice, 7 days of treatment, injected once every day
Experimental: as §1

human CD34+ cells [5] = experiment: Flow cytometry of HSPC populations after 7-day differentiation of human CD34+ cells treated with agonists or antagonists of GABRR1; type: cell-based
Experimental: as §2
Cell Isolation and Culture. Human bone marrow mononuclear cells were purchased from AllCells and cultured in StemSpan™ Serum-Free Expansion Medium II (SFEM II, StemCell Technologies), supplemented with 20 ng/ml hSCF (PeproTech), hTPO, hIL-3, hIL-6 and Flt3 (R&D Systems). Mouse bone marrow mononuclear cells were isolated from mice and cultured in StemSpan™ SFEMI (StemCell Technologies), supplemented with mTPO and mSCF (PeproTech). […] Medium was changed every other day.
Human bone marrow or cord blood cells were stained in a similar way using Rat IgG for blocking and PI for viability. Human cells were stained with the antibodies cocktails as follows: CD34, CD38, CD45RA, CD123, CD71, CD105, CD41 and the lineage markers CD2, CD4, CD8, CD11b/Mac-1, CD14, CD19, CD20, CD56 and CD235a. The GABRR1 antibodies were also used for staining (Bloss Antibodies).
Surface marker cocktail of human hematopoietic stem and progenitor populations: • HSCs/MPPs: Lin-CD34+CD38− • MkP: Lin-CD34+CD38+CD123−CD45RA−CD41+ • CMP: Lin-CD34+CD38+CD123lowCD45RA− • MEP: Lin-CD34+CD38+CD123−CD45RA− • GMP: Lin-CD34+CD38+CD123+CD45RA+ • EP: Lin-CD34+CD38+CD123−CD45RA−CD71+CD150+.

human CD34+ cells [6] = experiment: CFU-MK colony-forming assay from CD34+ bone marrow cells; type: cell-based
Experimental: as §2
Colony-Forming Unit Assay. Colony forming assay was performed using the MegaCult™-C Complete Kit with Cytokines (Stemcell Tech, 04971)) following manufacturer's instruction, Colonies were counted after 12-14 days of culture and megakaryopoietic colonies were stained using antibody provided in the kit.

[7] = 7-day differentiated human CD34+ cells, relative to non-treated cells

Structure (SMILES)	GABA-induced currents in GR+ HSCs (GABRR1 [1])	GABA-induced inward current in GR+ MkP cells (GABRR1 [1]; various membrane potentials)	Increase of bone marrow MkPs (GABRR1 [2])	Megakaryocyte-related gene expression (human CD34+ cells [3])	Increase of platelet numbers (GABRR1 [4])	Change of CD34+CD41+ population (MkP) (human CD34+ cells [5]; [7])	Change of CD34+CD71+ population (EP) (human CD34+ cells [5]; [7])	Frequency of all HSPCs tested (human CD34+ cells [5]; multicolor flow cytometry, 7 days of differentiation from CD34+ bone marrow cells)	MkP frequency relative to non-treated cells (human CD34+ cells [5]; multicolor flow cytometry, 7 days of differentiation from CD34+ bone marrow cells, non-treated set to 1)	Decrease in megakaryocyte colonies (human CD34+ cells [6]) [%]
NCCCC(=O)O [GABA, 4-aminobutanoic acid]	significant currents were induced	prominent GABA-induced inward current	63.7%±24.4%	significantly increased	–	–	–	–	–	–
NC/C=C/C(=O)O [TACA, trans-4-aminocrotonic acid]	–	–	23.3%±31.1%	–	24.6%±19.0%	–	–	–	–	–
Br.COc1ccc(-c2ccc(=N)n(CCCC(=O)O)n2)cc1 [SR95531]	–	–	–	–	did not affect platelet number significantly	decreased dramatically	decreased dramatically	decreased the frequency of all HSPCs tested	40.3%±13.6%	40
NCc1cc(=O)[nH]o1 [Muscimol, muscimol]	–	–	55.0%±26.7%	–	35.0%±13%	–	–	–	–	–
